Patent publication US20230131535A1, “ARYLMETHYLENE AROMATIC COMPOUNDS AS Kv1.3 POTASSIUM SHAKER CHANNEL BLOCKERS” (D. E. Shaw Research, LLC, priority 2019, published 2023)
Like-named read-outs stand apart in the source and are kept apart here.

Tests used:
Kv1.3 potassium channel = molecular target: T1, Kv1.3 potassium channel (Homo sapiens, UniProt P22001); assay: Kv1.3 potassium channel blocker activity, automated whole-cell patch clamp (Patchliner); type: cell-based; settings: CHO-K1 cells stably expressing Kv1.3, whole cell current, pulses -90 mV to +40 mV, read-out: Kv1.3_IC50
T1 construct: expressed in transfected cells
Method: Example 67. Evaluation of Kv1.3 Potassium Channel Blocker Activities
The assay described below is used to evaluate the disclosed compound's activities as Kv1.3 potassium channel blockers.
CHO-K1 cells stably expressing Kv1.3 were grown in DMEM containing 10% heat-inactivated FBS, 1 mM Sodium Pyruvate, 2 mM L-Glutamine and G418 (500 μg/ml). Cells were grown in culture flasks at 37° C. in a 5% CO2-humidified incubator.
(§1) The cells were bathed in an extracellular solution containing 140 mM NaCl, 4 mM KCl, 2 mM CaCl2), 1 mM MgCl2, 5 mM Glucose, 10 mM HEPES; pH adjusted to 7.4 with NaOH; 295-305 mOsm. The internal solution contained 50 mM KCl, 10 mM NaCl, 60 mM KF, 20 mM EGTA, 10 mM HEPES; pH adjusted to 7.2 with KOH; 285 mOsm. All compounds were dissolved in DMSO at 30 mM. Compound stock solutions were freshly diluted with external solution to concentrations of 30 nM, 100 nM, 300 nM, 1 μM, 3 μM, 10 μM, 30 μM and 100 μM. The highest content of DMSO (0.3%) was present in 100 μM.
The currents were evoked by applying 100 ms depolarizing pulses from −90 mV (holding potential) to +40 mV were applied with 0.1 Hz frequency. Control (compound-free) and compound pulse trains for each compound concentration applied contained 20 pulses. 10 second breaks were used between pulse trains (see Table 4 below).
Whole cell current recordings and compound application were enabled by means of an automated patch clamp platform Patchliner (Nanion Technologies GmbH). EPC 10 patch clamp amplifier (HIEKA Elektronik Dr. Schulze GmbH) along with Patchmaster software (HIEKA Elektronik Dr. Schulze GmbH) was used for data acquisition. Data were sampled at 10 kHz without filtering. Passive leak currents were subtracted online using a P/4 procedure (HEKA Elektronik Dr. Schulze GmbH). Increasing compound concentrations were applied consecutively to the same cell without washouts in between. Total compound incubation time before the next pulse train was not longer than 10 seconds. Peak current inhibition was observed during compound equilibration.
(§2) AUC and peak values were obtained with Patchmaster (HEKA Elektronik Dr. Schulze GmbH). To determine IC50, the last single pulse in the pulse train corresponding to a given compound concentration was used. Obtained AUC and peak values in the presence of compound were normalized to control values in the absence of compound. Using Origin (OridinLab), IC50 was derived from data fit to Hill equation: Icompound/Icontrol=(100−A)/(1+([compound]/IC50)nH)+A, where IC50 value is the concentration at which current inhibition is half-maximal, [compound] is the applied compound concentration, A is the fraction of current that is not blocked and nH is the Hill coefficient.

hERG channel = molecular target: T2, hERG channel (Homo sapiens, UniProt Q12809); assay: hERG electrophysiology, automated whole-cell patch clamp (Patchliner); type: cell-based; settings: CHO-K1 cells stably expressing hERG, whole cell current, tail current protocol, read-out: hERG_IC50
T2 construct: expressed in transfected cells
Method: Example 68. Evaluation of hERG Activities
This assay is used to evaluate the disclosed compounds' inhibition activities against the hERG channel.
CHO-K1 cells stably expressing hERG were grown in Ham's F-12 Medium with Glutamine containing 10% heat-inactivated FBS, 1% Penicillin/Streptomycin, Hygromycin (100 μg/ml) and G418 (100 μg/ml). Cells were grown in culture flasks at 37° C. in a 5% CO2-humidified incubator.
as §1
The voltage protocol (see Table 5) was designed to simulate voltage changes during a cardiac action potential with a 300 ms depolarization to +20 mV (analogous to the plateau phase of the cardiac action potential), a repolarization for 300 ms to −50 mV (inducing a tail current) and a final step to the holding potential of −80 mV. The pulse frequency was 0.3 Hz. Control (compound-free) and compound pulse trains for each compound concentration applied contained 70 pulses.
Whole cell current recordings and compound application were enabled by means of an automated patch clamp platform Patchliner (Nanion). EPC 10 patch clamp amplifier (HEKA) along with Patchmaster software (HEKA Elektronik Dr. Schulze GmbH) was used for data acquisition. Data were sampled at 10 kHz without filtering. Increasing compound concentrations were applied consecutively to the same cell without washouts in between.
as §2, with “PEAK” for “peak”, “IC50” for “IC50,”, “IC50” for “IC50 value”

T2 sequence (Q12809 whole entry): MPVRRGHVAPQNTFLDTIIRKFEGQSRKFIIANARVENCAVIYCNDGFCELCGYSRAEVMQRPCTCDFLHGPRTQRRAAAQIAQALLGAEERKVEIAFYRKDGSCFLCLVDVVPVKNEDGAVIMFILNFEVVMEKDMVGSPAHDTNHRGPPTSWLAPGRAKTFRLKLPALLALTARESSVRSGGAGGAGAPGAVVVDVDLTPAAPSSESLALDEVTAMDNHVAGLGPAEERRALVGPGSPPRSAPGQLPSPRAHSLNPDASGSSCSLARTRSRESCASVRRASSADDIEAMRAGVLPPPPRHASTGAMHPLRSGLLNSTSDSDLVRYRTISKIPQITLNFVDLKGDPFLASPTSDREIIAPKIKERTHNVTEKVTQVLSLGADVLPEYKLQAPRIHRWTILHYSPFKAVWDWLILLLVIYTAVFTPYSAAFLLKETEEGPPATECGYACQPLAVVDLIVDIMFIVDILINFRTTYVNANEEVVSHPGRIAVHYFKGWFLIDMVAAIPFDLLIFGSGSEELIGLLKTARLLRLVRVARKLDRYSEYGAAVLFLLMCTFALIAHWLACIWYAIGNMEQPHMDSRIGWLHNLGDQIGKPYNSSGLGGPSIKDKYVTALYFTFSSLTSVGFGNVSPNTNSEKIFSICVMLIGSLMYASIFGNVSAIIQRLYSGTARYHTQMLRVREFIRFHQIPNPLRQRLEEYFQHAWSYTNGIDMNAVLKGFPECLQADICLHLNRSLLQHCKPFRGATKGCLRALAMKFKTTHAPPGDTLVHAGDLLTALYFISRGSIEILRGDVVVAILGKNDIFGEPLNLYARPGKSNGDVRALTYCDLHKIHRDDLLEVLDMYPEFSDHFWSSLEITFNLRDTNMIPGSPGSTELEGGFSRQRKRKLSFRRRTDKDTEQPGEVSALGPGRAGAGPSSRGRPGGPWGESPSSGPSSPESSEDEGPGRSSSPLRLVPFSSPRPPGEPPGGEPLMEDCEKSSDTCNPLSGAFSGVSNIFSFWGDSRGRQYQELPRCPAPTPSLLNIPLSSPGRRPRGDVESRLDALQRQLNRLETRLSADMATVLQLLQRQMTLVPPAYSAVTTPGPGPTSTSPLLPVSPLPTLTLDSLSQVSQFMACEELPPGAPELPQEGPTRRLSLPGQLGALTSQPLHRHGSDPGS
T1 sequence (P22001 whole entry): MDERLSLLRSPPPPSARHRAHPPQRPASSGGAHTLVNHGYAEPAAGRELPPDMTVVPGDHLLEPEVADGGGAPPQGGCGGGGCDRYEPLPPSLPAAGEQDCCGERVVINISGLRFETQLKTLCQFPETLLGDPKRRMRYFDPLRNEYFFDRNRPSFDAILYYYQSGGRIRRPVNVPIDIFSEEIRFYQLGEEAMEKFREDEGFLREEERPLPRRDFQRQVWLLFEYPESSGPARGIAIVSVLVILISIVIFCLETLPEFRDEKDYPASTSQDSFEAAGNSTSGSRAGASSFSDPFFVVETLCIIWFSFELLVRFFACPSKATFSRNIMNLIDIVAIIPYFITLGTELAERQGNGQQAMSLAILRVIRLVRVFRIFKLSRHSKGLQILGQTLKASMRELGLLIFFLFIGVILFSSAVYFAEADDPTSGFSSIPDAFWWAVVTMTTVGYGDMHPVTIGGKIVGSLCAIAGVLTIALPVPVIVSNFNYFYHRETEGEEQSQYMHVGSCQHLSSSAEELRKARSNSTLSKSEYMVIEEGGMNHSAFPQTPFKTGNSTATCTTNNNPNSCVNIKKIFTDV

IC50 (Kv1.3 potassium channel; Table 7) | IC50 (Kv1.3 potassium channel; Table 6) | SMILES | IC50 (hERG channel; Table 7) | IC50 (hERG channel; Table 6)
< 1 µM |  | CC(NC(=O)C1CNC1)c1c(O)ccc(Br)c1Cl (stereo in doubt) [Compound 91, N-[(1R)-1-3-bromo-2-chloro-6-hydroxyphenyl) ethyl]azetidine-3-carboxamide] | > 30 µM | 
 | < 10 µM | Oc1cc(Cl)c(Cl)cc1Cc1ccncc1 [Compound 1, 2-[(pyridin-4-yl)methyl]-4,5-dichlorophenol] |  | > 30 µM
 | < 10 µM | Nc1cc(Cc2cc(Cl)c(Cl)cc2O)ccn1 [Compound 2, 2-[(2-aminopyridin-4-yl)methyl]-4,5-dichlorophenol] |  | < 30 µM
 | < 10 µM | NC(c1ccncc1)c1cc(Cl)c(Cl)cc1O (stereo not drawn) [Compound 6, 2-[amino(pyridin-4-yl)methyl]-4,5-dichlorophenol] |  | > 30 µM
 | < 10 µM | Nc1ccc(Cc2cc(Cl)c(Cl)cc2O)cn1 [Compound 8, 2-[(6-aminopyridin-3-yl)methyl]-4,5-dichlorophenol] |  | < 30 µM
 | < 1 µM | Cc1cnccc1C(NC(=O)C1CNC1)c1c(O)ccc(Cl)c1Cl (stereo not drawn) [Compound 9, N-[(2,3-dichloro-6-hydroxyphenyl)(3-methylpyridin-4-yl)methyl]azetidine-3-carboxamide] |  | > 30 µM
 | < 10 µM | NC(c1ccncc1)c1c(O)ccc(Cl)c1Cl (stereo not drawn) [Compound 11, 2-[amino(pyridin-4-yl)methyl]-3,4-dichlorophenol] |  | > 30 µM
 | < 10 µM | NC(c1ccncc1)c1c(O)ccc2ccccc12 (stereo not drawn) [Compound 17, 1-[amino(pyridin-4-yl)methyl]naphthalen-2-ol] |  | < 30 µM
 | < 10 µM | CC(=O)CC(c1ccncc1)c1c(O)ccc2ccccc12 (stereo not drawn) [Compound 18] |  | > 30 µM
 | < 1 µM | CC(=O)NC(c1ccncc1)c1c(O)ccc(Cl)c1Cl (stereo not drawn) [Compound 20, N-[(2,3-dichloro-6-hydroxyphenyl)(pyridin-4-yl)methyl]acetamide] |  | > 30 µM
 | < 1 µM | NC(c1ccc2c(c1)CNC2)c1cc(Cl)c(Cl)cc1O (stereo not drawn) [Compound 21, 2-[amino(2,3-dihydro-1H-isoindol-5-yl)methyl]-4,5-dichlorophenol] |  | < 30 µM
 | < 1 µM | O=C(NC(c1ccncc1)c1cc(Cl)c(Cl)cc1O)C1CNC1 (stereo not drawn) [Compound 26, N-[(4,5-dichloro-2-hydroxyphenyl)(pyridin-4-yl)methyl]azetidine-3-carboxamide] |  | > 30 µM
 | < 10 µM | Oc1cc(Cl)c(Cl)cc1C(O)c1ccncc1 (stereo not drawn) [Compound 27, 4,5-dichloro-2-[hydroxy(pyridin-4-yl)methyl]phenol] |  | > 30 µM
 | < 1 µM | NCc1cc(C(O)c2c(O)ccc(Cl)c2Cl)ccn1 (stereo not drawn) [Compound 28, 2-[[2-(aminomethyl)pyridin-4-yl](hydroxy)methyl]-3,4-dichlorophenol] |  | > 30 µM
 | < 1 µM | Oc1ccc(Cl)c(Cl)c1C(O)c1ccncc1 (stereo not drawn) [Compound 29, 3,4-dichloro-2-[hydroxy(pyridin-4-yl)methyl]phenol] |  | > 30 µM
 | < 1 µM | Oc1ccc(Cl)c(Cl)c1C(O)c1cccnc1 (stereo not drawn) [Compound 31, 3,4-dichloro-2-[hydroxy(pyridin-3-yl)methyl]phenol] |  | > 30 µM
 | < 1 µM | Nc1cc(C(O)c2c(O)ccc(Cl)c2Cl)ccn1 (stereo not drawn) [Compound 36, 2-[(2-aminopyridin-4-yl)(hydroxy)methyl]-3,4-dichlorophenol] |  | > 30 µM
 | < 1 µM | Cc1cnccc1C(O)c1c(O)ccc(Cl)c1Cl (stereo not drawn) [Compound 39, 3,4-dichloro-2-[hydroxy(3-methylpyridin-4-yl)methyl]phenol] |  | > 30 µM
 | < 1 µM | Nc1ccc(C(O)c2c(O)ccc(Cl)c2Cl)cn1 (stereo not drawn) [Compound 40, 2-[(6-aminopyridin-3-yl)(hydroxy)methyl]-3,4-dichlorophenol] |  | < 30 µM
 | < 1 µM | O=C(NC(c1ccncc1)c1c(O)ccc(Cl)c1Cl)C1CNC1 (stereo not drawn) [Compound 42, N-[(2,3-dichloro-6-hydroxyphenyl)(pyridin-4-yl)methyl]azetidine-3-carboxamide] |  | > 30 µM
 | < 1 µM | NC(=O)c1ccc(C(O)c2c(O)ccc(Cl)c2Cl)cc1 (stereo not drawn) [Compound 64, 4-[(2,3-dichloro-6-hydroxyphenyl)(hydroxy)methyl]benzamide] |  | > 30 µM
 | < 1 µM | CN1CC(C(=O)NC(c2ccncc2)c2c(O)ccc(Cl)c2Cl)C1 (stereo not drawn) [Compound 73, N-[(2,3-dichloro-6-hydroxyphenyl)(pyridin-4-yl)methyl]-1-methylazetidine-3-carboxamide] |  | > 30 µM
< 1 µM |  | C[C@H](NC(=O)C1CNC1)c1c(O)ccc(Cl)c1Cl [Compound 76, N-[(1S)-1-(2,3-dichloro-6-hydroxyphenyl)ethyl]azetidine-3-carboxamide] | > 30 µM | 
< 1 µM |  | C[C@@H](NC(=O)[C@H]1CCCNC1)c1c(O)ccc(Cl)c1Cl [Compound 78, (3S)-N-[(1R)-1-(2,3-dichloro-6-hydroxyphenyl)ethyl]piperidine-3-carboxamide] | > 30 µM | 
< 1 µM |  | C[C@H](NC(=O)C1CN(CCO)C1)c1c(O)ccc(Cl)c1Cl [Compound 89, N-[(1S)1-(2,3-dichloro-6-hydroxyphenyl)ethyl]-1-(2-hydroxyethyl) azetidine-3-carboxamide] | > 30 µM | 
< 1 µM |  | Cc1cc(O)c([C@H](N)CNC(=O)C2CNC2)cc1Cl [Compound 94, N-[(2S)-2-amino-2-(5-chloro-2-hydroxy-4-methylphenyl)ethyl]azetidine-3-carboxamide] | > 30 µM | 
< 1 µM |  | C[C@H](NC(=O)C1CNC1)c1c(O)ccc(Cl)c1Br [Compound 98, N-[(1S)-1-(2-bromo-3-chloro-6-hydroxyphenyl)ethyl]azetidine-3-carboxamide] | > 30 µM | 
